Data as given in PubChem BioAssay (NCI).
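The concentration for 50% growth inhibition is given as GI50. TGI: total growth inhibition.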

Key:
Test in all cases: growth of human tumour cells (NCI), 384-well format
[1] = system: MALME-3M melanoma
[2] = system: HS 578T breast
[3] = system: SNB-19 CNS
[4] = system: MDA-MB-435 melanoma
[5] = system: NCI-H322M lung
[6] = system: A549 NSCLC
[7] = system: SF-539 CNS
[8] = system: NCI/ADR-RES ovarian
[9] = system: EKVX NSCLC
[10] = system: MDA-MB-231 breast
[11] = system: BT-549 breast
[12] = system: SK-MEL-2 melanoma
[13] = system: HOP-92 NSCLC
[14] = system: SK-OV-3 ovarian
[15] = system: M14 melanoma
[16] = system: SW-620 colon
[17] = system: ACHN renal
[18] = system: NCI-H460 NSCLC
[19] = system: T-47D breast
[20] = system: RXF 393 renal
[21] = system: KM12 colon
[22] = system: MCF7 breast
[23] = system: A498 renal
[24] = system: IGROV1 ovarian
[25] = system: UACC-62 melanoma
[26] = system: UACC-257 melanoma
[27] = system: OVCAR-8 ovarian
[28] = system: HOP-62 NSCLC
[29] = system: NCI-H522 lung
[30] = system: COLO 205 colon
[31] = system: HCC-2998 colon
[32] = system: TK-10 renal
[33] = system: HT29 colon
[34] = system: OVCAR-5 ovarian
[35] = system: NCI-H23 lung
[36] = system: OVCAR-3 ovarian
[37] = system: SK-MEL-5 melanoma
[38] = system: NCI-H226 lung
[39] = system: SK-MEL-28 melanoma
[40] = system: 786-0 renal
[41] = system: DU-145 prostate
[42] = system: SNB-75 CNS
[43] = system: MDA-MB-468 breast
[44] = system: PC-3 prostate
[45] = system: U251 glioblastoma
[46] = system: SN12C renal
[47] = system: SF-295 CNS
[48] = system: HL-60(TB) leukemia
[49] = system: HCT-15 colon
[50] = system: MOLT-4 leukemia
[51] = system: SR leukemia
[52] = system: RPMI-8226 leukemia
[53] = system: OVCAR-4 ovarian
[54] = system: CAKI-1 renal
[55] = system: CCRF-CEM leukemia
[56] = system: SF-268 CNS

For `COCC1(CO)C(=O)C2CCN1CC2` (configuration not stated), the GI50 [1] was 17.5 µM, the TGI [1] was 31.3 µM and the GI50 [2] was 13.1 µM. For the same molecule, the TGI [2] was 25.9 µM, the GI50 [3] was 17.5 µM and the TGI [3] was 31.5 µM. For the same molecule, the GI50 [4] was 16.9 µM, the TGI [4] was 30.7 µM and the GI50 [5] was 19.7 µM. It also gave a TGI [5] of 35.2 µM, a GI50 [6] of 18.2 µM and a TGI [6] of 32.4 µM. It also gave a GI50 [7] of 17.5 µM, a TGI [7] of 31.3 µM and a GI50 [8] of 16.2 µM. The TGI [8] was 29.9 µM, the GI50 [9] was 16.9 µM and the TGI [9] was 30.6 µM. It also gave a GI50 [10] of 17.7 µM, a TGI [10] of 31.7 µM and a GI50 [11] of 11.5 µM. The TGI [11] was 23.7 µM, the GI50 [12] was 2620 nM and the TGI [12] was 5.41 µM. It also gave a GI50 [13] of 10.9 µM, a TGI [13] of 22.9 µM and a GI50 [14] of 19.3 µM. The TGI [14] was 33.4 µM, the GI50 [15] was 17.8 µM and the TGI [15] was 31.8 µM. The GI50 [16] was 14.2 µM, the TGI [16] was 27.4 µM and the GI50 [17] was 20.3 µM. The TGI [17] was 34.6 µM, the GI50 [18] was 17.4 µM and the TGI [18] was 31.6 µM. The GI50 [19] was 1580 nM, the TGI [19] was 2940 nM and the GI50 [20] was 2000 nM. For the same molecule, the TGI [20] was 3.43 µM, the GI50 [21] was 17.9 µM and the TGI [21] was 32 µM. It also gave a GI50 [22] of 3.68 µM, a TGI [22] of 12.4 µM and a GI50 [23] of 16.7 µM. The TGI [23] was 30.5 µM, the GI50 [24] was 17.2 µM and the TGI [24] was 31.1 µM. For the same molecule, the GI50 [25] was 18.2 µM, the TGI [25] was 32.2 µM and the GI50 [26] was 13.9 µM. For the same molecule, the TGI [26] was 27 µM, the GI50 [27] was 19.8 µM and the TGI [27] was 34.1 µM. For the same molecule, the GI50 [28] was 1860 nM, the TGI [28] was 3.49 µM and the GI50 [29] was 1830 nM. For the same molecule, the TGI [29] was 3.24 µM, the GI50 [30] was 18.1 µM and the TGI [30] was 32.1 µM. It also gave a GI50 [31] of 17.2 µM, a TGI [31] of 31 µM and a GI50 [32] of 17 µM. The TGI [32] was 30.7 µM, the GI50 [33] was 19 µM and the TGI [33] was 33.2 µM. The GI50 [34] was 16.5 µM, the TGI [34] was 30.2 µM and the GI50 [35] was 11.8 µM. It also gave a TGI [35] of 24.2 µM, a GI50 [36] of 14.6 µM and a TGI [36] of 27.9 µM. It also gave a GI50 [37] of 15.5 µM, a TGI [37] of 29 µM and a GI50 [38] of 21.9 µM. For the same molecule, the TGI [38] was 36.4 µM, the GI50 [39] was 20.6 µM and the TGI [39] was 35 µM. It also gave a GI50 [40] of 15.5 µM, a TGI [40] of 28.9 µM and a GI50 [41] of 17.9 µM. For the same molecule, the TGI [41] was 32 µM, the GI50 [42] was 1790 nM and the TGI [42] was 3.73 µM. It also gave a GI50 [43] of 3.28 µM, a TGI [43] of 7.2 µM and a GI50 [44] of 19.1 µM. It also gave a TGI [44] of 33.3 µM, a GI50 [45] of 18.7 µM and a TGI [45] of 32.8 µM. It also gave a GI50 [46] of 15.3 µM, a TGI [46] of 28.8 µM and a GI50 [47] of 17.5 µM. The TGI [47] was 31.6 µM, the GI50 [48] was 13 µM and the TGI [48] was 25.9 µM. The GI50 [49] was 4.34 µM, the TGI [49] was 13.9 µM and the GI50 [50] was 2270 nM. The TGI [50] was 6.55 µM, the GI50 [51] was 14.6 µM and the TGI [51] was 27.8 µM. It also gave a GI50 [52] of 10.5 µM, a TGI [52] of 22.3 µM and a GI50 [53] of 2600 nM. The TGI [53] was 6.3 µM, the GI50 [54] was 17.1 µM and the TGI [54] was 30.9 µM. For the same molecule, the GI50 [55] was 1760 nM, the TGI [55] was 3.33 µM and the GI50 [56] was 20 µM. The TGI [56] was 34.2 µM.
